Read-outs that look alike come from different tables or passages of the source.
Assays:
ER-BC (Bcoa0725) = conditions: NADH, anaerobic
ER-MT = target: T1, ER-MT (Neomoorella thermoacetica, UniProt O52935); assay: whole-cell biotransformation, LC-MS; assay type: cell-based; conditions: 0.7 mM substrate; E. coli expressing ER
T1 sequence (O52935 1-667): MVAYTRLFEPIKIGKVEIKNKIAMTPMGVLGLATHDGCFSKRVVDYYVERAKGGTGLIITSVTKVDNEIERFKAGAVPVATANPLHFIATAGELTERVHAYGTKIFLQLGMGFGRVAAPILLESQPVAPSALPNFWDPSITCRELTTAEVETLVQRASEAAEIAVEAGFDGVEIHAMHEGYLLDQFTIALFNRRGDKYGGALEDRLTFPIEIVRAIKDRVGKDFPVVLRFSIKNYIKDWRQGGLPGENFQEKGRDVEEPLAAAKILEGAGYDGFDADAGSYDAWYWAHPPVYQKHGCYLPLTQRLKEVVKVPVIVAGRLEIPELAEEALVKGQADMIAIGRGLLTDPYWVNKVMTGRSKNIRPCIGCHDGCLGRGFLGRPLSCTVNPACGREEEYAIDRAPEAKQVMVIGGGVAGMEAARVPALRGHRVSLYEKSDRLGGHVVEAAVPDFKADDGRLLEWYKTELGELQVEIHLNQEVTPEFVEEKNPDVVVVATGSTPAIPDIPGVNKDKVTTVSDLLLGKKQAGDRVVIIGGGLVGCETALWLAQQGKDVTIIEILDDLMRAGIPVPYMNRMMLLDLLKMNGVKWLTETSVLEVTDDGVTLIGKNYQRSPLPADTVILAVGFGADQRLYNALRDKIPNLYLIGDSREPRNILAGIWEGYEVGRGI

Compound: O=C(O)C=CCCC(=O)O (mixture of isomers) [compound 5, 2-hexenedioic acid]
- Km (ER-BC (Bcoa0725); 14% isopropanol, sigmoidal kinetics): 18.9 mM

Compound: O=C(O)/C=C/c1ccccc1 [compound 4, trans-cinnamic acid]
- Km (ER-BC (Bcoa0725); substrate inhibition): 0.68 mM

Compound: O=C(O)/C=C/C=C/C(=O)O [trans,trans-muconic acid]
- whole-cell biotransformation, LC-MS (ER-MT): the ER-BC, ER-CA and ER-MT strains hydrogenated both isomers to adipic acid

Source: publication PMC5460604 (Chemical Science, 2016)
